Assay results from article PMC13266999, “Designing Antibiotics with Inherent Resistance to Efflux as a Strategy to Revive Discovery against Multidrug-Resistant Pathogens” (Journal of Medicinal Chemistry, 2026).
In brackets after ≈: the same amount, converted by molar mass. Several values for one entry are separate records, joined by “and”; a condition that tells them apart may be missing. Equal values may be shown once. Read-outs that look alike come from different tables or passages of the source.

Experiments:
[1] = tested on: S. aureus; test: MIC (microbroth dilution); format: cell-based, Staphylococcus aureus; conditions: for fold difference in MIC, SA-1199B vs SA-1199: NorA-overexpressing vs WT; for MIC: Staphylococcus aureus
Protocol: (§1) All bacteria were maintained on tryptic soy agar (TSA), except Streptococcus spp., which were maintained on Columbia agar plates containing 5% horse blood. […] Bacteria were grown to stationary phase in liquid culture overnight, with shaking at 200 rpm, before being back diluted to the relevant starting concentration for each assay below. MICs were measured by the microbroth dilution method. […] Absorbance at OD600 was read on a CLARIOstar spectrophotometer (BMG Labtech) and the MIC was defined as the minimum concentration of compound where no visible growth was detected. […] MICs were also performed in the presence of the outer membrane permeator, polymyxin b nonapeptide (PMBN) following the same MIC method but with the following variation. The 2-fold dilution series of compound was prepared as above, then 50 μL of PMBN at a final concentration of 30 μg/mL was added to relevant wells, while 50 μL/well of blank media was added to the remaining wells. Bacteria were then added at 50 μL/well for a starting concentration as above. […] The MICs were read and defined as above. All animal procedures were performed by the contract research organization Pharmacology Discovery Services Taiwan in accordance with the Guide for the Care and Use of Laboratory Animals. The procedures were approved by the Institutional Ethics Committee of Pharmacology Discovery Services Taiwan, Ltd. (approval no. AB127662), in compliance with animal welfare legislation in Taiwan.

[2] = tested on: NorA overexpressing strain NCTC 13616; test: Reserpine growth (efflux inhibition) assay; conditions: for AUC of growth curve: biological replicates 1-3
Protocol: Statistical analyses were performed with GraphPad Prism V9.5.0. […] Unpaired t tests were used when comparing two samples in the gyrase assays.

[3] = tested on: A. baumannii; test: A. baumannii efflux chequerboard assay; format: cell-based, Acinetobacter baumannii; conditions: for MIC: Acinetobacter baumannii, read-out: MIC alone
Protocol: Checkerboard assays were performed by preparing two separate 2-fold dilution series of compounds in two 96 well plates, one horizontally, one vertically. […] Plates were incubated at 37 C for 20 h and the absorbance (OD600) was read on a CLARIOstar spectrophotometer (BMG Labtech). The fractional inhibitory concentration was calculated as follows: ΣFIC = [(MIC of A in combination)/(MIC of A alone)] + [(MIC of B in combination)/(MIC of B alone)].

[4] = tested on: E. faecalis; test: MIC (microbroth dilution); format: cell-based, Enterococcus faecalis; conditions: Enterococcus faecalis, read-out: MIC
Protocol: as §1

[5] = ATCC9144, ATCC 9144, read-out: MIC
[6] = NCTC13277, NCTC 13277, read-out: MIC
[7] = NCTC13616, NCTC 13616, read-out: MIC

SMILES	fold difference in MIC, SA-1199B vs SA-1199 [1] [fold]	MIC [1, 5] [µg/mL]	MIC [1, 6] [µg/mL]	MIC [1, 7] [µg/mL]	MIC ([1]; SA-1199, read-out: MIC) [µg/mL]	MIC ([1]; SA-1199B (NorA-overexpressing)) [µg/mL]	AUC of growth curve ([2]; 0.25 MIC + R (reserpine))	AUC of growth curve ([2]; 0.25 MIC)	AUC of growth curve ([2]; 0.5 MIC + R (reserpine))	AUC of growth curve ([2]; 0.5 MIC)	other results
C[C@H]1COc2c(N3CCC(Nc4ncccn4)C3)c(F)cc3c(=O)c(C(=O)O)cn1c23 (stereo partly drawn) [Compound 43, (3S)-9-Fluoro-3-methyl-7-oxo-10-(3-(pyrimidin-2-ylamino)pyrrolidin-1-yl)-2,3-dihydro-7H-[1,4]oxazino[2,3,4-ij]quinoline-6-carboxylic acid]	2	0.125 (≈ 0.294 µM)	2 (≈ 4.7 µM)	2 (≈ 4.7 µM)	0.016 (≈ 0.0376 µM)	0.03 (≈ 0.0705 µM)	2.601 and 2.681 and 2.535	3.079 and 3.208 and 2.944	0.9550 and 0.7355 and 0.8940	1.061 and 0.9440 and 1.050	fold potentiation compared to levofloxacin ([1]; fluoroquinolone-resistant NCTC 13616 and NCTC 13277): 8 fold; efflux liability in reserpine assay ([2]; 0.5x MIC with vs without reserpine): did not demonstrate efflux liability
CNC(C)C1CCC(N)C(OC2C(N)CC(N)C(OC3OCC(C)(O)C(NC)C3O)C2O)O1 (stereo not drawn) [Gentamicin]	–	–	–	–	–	–	–	–	–	–	MIC +50 (0.25x MIC) ([3]; A. baumannii ATCC 17978): 2.13 to 4.25 µg/mL; MIC +50 (0.5x MIC) ([3]; A. baumannii ATCC 17978): 0.03 to 1.75 µg/mL; MIC +50 (0.25x MIC) ([3]; A. baumannii AYE): >1,024 μg/mL; MIC ([3]; ATCC17978, A. baumannii ATCC 17978): 4 µg/mL; MIC ([3]; A. baumannii AYE): > 1020 µg/mL
O=C(O)c1cn(C2CC2)c2c(Cc3cccc4ccccc34)c(N3CCNCC3)c(F)cc2c1=O [Compound 19, 1-Cyclopropyl-6-fluoro-8-(naphthalen-1-ylmethyl)-4-oxo-7-(piperazin-1-yl)-1,4-dihydroquinoline-3-carboxylic acid]	–	64 (≈ 136 µM)	32 (≈ 67.9 µM)	32 (≈ 67.9 µM)	16 (≈ 33.9 µM)	16 (≈ 33.9 µM)	–	–	–	–	MIC ([1]; USA300, USA300, read-out: MIC): 32 µg/mL (≈ 67.9 µM); MIC ([4]; NCTC775, NCTC 775): 16 µg/mL (≈ 33.9 µM); MIC ([4]; NCTC12201, NCTC 12201): 16 µg/mL (≈ 33.9 µM); MIC ([4]; NCTC12204, NCTC 12204): 16 µg/mL (≈ 33.9 µM)
C[C@H]1COc2c(N3CCN(c4ncccn4)CC3)c(F)cc3c(=O)c(C(=O)O)cn1c23 [Compound 42, (S)-9-Fluoro-3-methyl-7-oxo-10-(4-(pyrimidin-2-yl)piperazin-1-yl)-2,3-dihydro-7H-[1,4]oxazino[2,3,4-ij]quinoline-6-carboxylic acid]	4	0.06 (≈ 0.141 µM)	> 32	8 (≈ 18.8 µM)	0.06 (≈ 0.141 µM)	0.25 (≈ 0.588 µM)	1.819 and 2.376 and 1.866	2.249 and 2.537 and 2.169	1.376 and 1.633 and 1.162	1.682 and 1.538 and 1.705	–
